In US8865738B2, “5-membered heterocyclic compound cyclopenta[C]pyrrolylalkylcarbamate derivatives, preparation thereof, and therapeutic use thereof” (Sanofi, priority 2009, dated 2014):

How the values were obtained:
[1] = target: T1, FAAH (Fatty Acid Amide Hydrolase) (Mus musculus, UniProt O08914); experiment: radioenzymatic test, hydrolysis of anandamide [ethanolamine 1-3H] with FAAH (protocol 1); format: biochemical; settings: mouse brain membrane homogenate, anandamide 10 μM, 20 min preincubation at 25° C., read-out: IC50 (concentration that inhibits 50% of the control enzymatic activity of FAAH)
T1 construct: The membrane homogenates are prepared extemporaneously by homogenizing the tissues; from tissue; host or cells: mouse brain (minus the cerebellum), membrane homogenate
T1 sequence (O08914 1-579): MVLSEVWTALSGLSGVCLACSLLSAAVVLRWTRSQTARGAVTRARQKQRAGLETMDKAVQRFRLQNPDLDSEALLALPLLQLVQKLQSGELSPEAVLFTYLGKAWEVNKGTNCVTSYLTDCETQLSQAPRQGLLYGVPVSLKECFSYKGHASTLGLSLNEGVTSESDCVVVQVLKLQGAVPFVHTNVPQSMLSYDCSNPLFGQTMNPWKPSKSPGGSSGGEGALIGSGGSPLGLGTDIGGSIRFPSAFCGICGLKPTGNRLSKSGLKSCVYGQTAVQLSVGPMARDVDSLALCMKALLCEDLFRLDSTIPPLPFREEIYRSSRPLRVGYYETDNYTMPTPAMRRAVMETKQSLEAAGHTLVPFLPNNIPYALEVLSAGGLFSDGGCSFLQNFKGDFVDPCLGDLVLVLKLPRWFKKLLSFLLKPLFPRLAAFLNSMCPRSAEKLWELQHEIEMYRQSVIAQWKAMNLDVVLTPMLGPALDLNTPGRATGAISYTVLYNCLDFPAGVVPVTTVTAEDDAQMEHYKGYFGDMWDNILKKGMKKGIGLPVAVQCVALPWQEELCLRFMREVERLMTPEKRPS
Description: (§1) The compounds of the invention underwent pharmacological tests to determine their inhibitory effect on the enzyme FAAH (Fatty Acid Amide Hydrolase).
Thus, mouse brains (minus the cerebellum) are removed and stored at −80° C. The membrane homogenates are prepared extemporaneously by homogenizing the tissues using a Precellys® machine in reaction buffer (10 mM Tris-HCl, pH=8, 150 mM NaCl and 1 mM ethylenediaminetetraacetic acid (EDTA)). The enzymatic reaction is performed in 96-well Multiscreen filtration plates in a final volume of 70 μl. Reaction buffer supplemented with fatty acid-free bovine serum albumin (BSA, 1 mg/ml) is used for the enzymatic reaction and the dilution of the compounds and of the anandamide [ethanolamine 1-^3H]. The reaction buffer containing BSA (43 μl/well), the diluted test compounds at various concentrations (7 μl/well containing 1% DMSO) and the membrane preparation (10 μl/well, i.e. 200 μg of tissue per test) are successively added to the wells. After preincubation for 20 minutes of the compounds with the enzyme at 25° C., the reaction is started by adding anandamide [ethanolamine 1-^3H](specific activity of 15-20 Ci/mmol) diluted with cold anandamide (10 μl/well, final concentration of 10 μM, 0.01 μCi per test). After incubation for 20 minutes at 25° C., the enzymatic reaction is stopped by adding a 5M solution of activated carbon prepared in 1.5M NaCl buffer and 0.5M HCl (50 μl/well). The mixture is stirred for 10 minutes then the aqueous phase containing the ethanolamine [1-^3H] is recovered by filtration under vacuum and counted by liquid scintillation.

[2] = target: T1, FAAH (Fatty Acid Amide Hydrolase); experiment: fluorescent enzymatic test, hydrolysis of AAMC with FAAH (protocol 2); format: biochemical; settings: mouse brain homogenate, AAMC 10 μM, 40 min at 37° C., read-out: IC50 (concentration that inhibits 50% of the control enzymatic activity of FAAH)
Description: as §1
Thus, mouse brains (minus the cerebellum) are withdrawn and stored at −80° C. The brain homogenates are prepared extemporaneously by homogenizing the tissues using a Precellys® machine in reaction buffer (10 mM Tris-HCl, pH=8, 150 mM NaCl and 1 mM ethylenediamine-tetraacetic acid (EDTA)). The enzymatic reaction is performed in black polystyrene 384-well plates in a final volume of 50 μL. Reaction buffer supplemented with fatty acid-free bovine serum albumin (BSA, 1 mg/ml) is used for the enzymatic reaction, the dilution of the compounds and the dilution of the AAMC. Reaction buffer containing the BSA (25 μl/well), the diluted test compounds at various concentrations (5 μl/well containing 1% DMSO) and the membrane preparation (10 μL/well, i.e. 200 μg of tissue per test) are successively added to the wells. After preincubation for 20 minutes of the compounds with the enzyme at 25° C., the reaction is started by adding 10 μL of substrate per well (AAMC, final concentration of 10 μM). After incubation for 40 minutes at 37° C., the aminomethyl coumarin (AMC) produced is measured by fluorescent counting (Envision plate reader).

With `Cn1ncnc1COC(=O)NC[C@H]1C[C@@H]2CN(c3cccc(-c4cncc(F)c4)n3)C[C@@H]2C1` [Compound No. 8, (1-methyl-1H-1,2,4-triazol-5-yl)methyl {[(3aR,5s,6aS)-2-(5′-fluoro-2,3′-bipyrid-6-yl)octahydrocyclopenta[c]-pyrrol-5-yl]methyl}carbamate (exo)] the melting point was 136 to 138 °C and the IC50 [1] was 1.1 nM.

In the case of `CNC(=O)c1cc(COC(=O)NCC[C@@H]2C[C@@H]3CN(c4ccc(Br)cn4)C[C@@H]3C2)on1` [Compound No. 10, [3-(methylcarbamoyl)isoxazol-5-yl]methyl {2-[(3aR,5r,6aS)-2-(5-bromopyrid-2-yl)octahydrocyclopenta[c]-pyrrol-5-yl]ethyl}carbamate (endo)], the melting point is reported as 157 to 159 °C and the IC50 [1] is reported as 2.4 nM.

`O=C(NC[C@H]1C[C@@H]2CN(c3cccc(C(F)(F)F)n3)C[C@@H]2C1)OCc1cscn1` [Compound No. 1, thiazol-4-ylmethyl ({(3aR,5s,6aS)-2-[6-(trifluoro-methyl)pyrid-2-yl]octahydrocyclopenta[c]pyrrol-5-yl}methyl)carbamate (exo)] gave an IC50 [1] of 200 nM.

In the case of `Cn1cc(-c2ccc(N3CC4CC(CNC(=O)OCc5cscn5)CC4C3)nc2)cn1` [compound 4, thiazol-4-ylmethyl ({(3aR,5s,6aS)-2-[5-(1-methyl-1H-pyrazol-4-yl)pyrid-2-yl]octahydrocyclopenta[c]pyrrol-5-yl}methyl)carbamate (exo)], the IC50 [1] is reported as 8.5 nM.

`O=C(NC[C@H]1C[C@@H]2CN(c3ccc(-c4ccc(F)cc4)cn3)C[C@@H]2C1)OCc1cscn1` [Compound No. 3, thiazol-4-ylmethyl ({(3aR,5s,6aS)-2-[5-(4-fluoro-phenyl)pyrid-2-yl]octahydrocyclopenta[c]pyrrol-5-yl}-methyl)carbamate (exo)] showed a melting point of 129 to 131 °C and an IC50 [1] of 0.98 nM.

With `Cn1ncnc1COC(=O)NC[C@H]1C[C@@H]2CN(c3ccc(-c4ccc(F)cc4)cn3)C[C@@H]2C1` [compound 7, (1-methyl-1H-1,2,4-triazol-5-yl)methyl ({(3aR,5s,6aS)-2-[5-(4-fluorophenyl)pyrid-2-yl]octahydrocyclopenta[c]-pyrrol-5-yl}methyl)carbamate (exo)] the IC50 [1] was 170 nM.

Compound `CNC(=O)c1cc(COC(=O)NC2C3CN(c4ccc5cc(F)ccc5n4)CC32)on1` (centres unmarked) [Compound No. 14, [3-(methylcarbamoyl)isoxazol-5-yl]methyl [3-(6-fluoro-quinolin-2-yl)-3-azabicyclo[3.1.0]hex-6-yl]carbamate] has an IC50 [2] of 12 nM and a melting point of 220 to 222 °C.
